# In patent US20140378408A1, “NUCLEOSIDE 5'-PHOSPHOROTHIOATE ANALOGUES AND USES THEREOF” (BAR-ILAN UNIVERSITY, an Israeli University, priority 2012, published 2014):
# Read-outs that look alike come from different tables or passages of the source.
# How the values were obtained:
# PC12 cells [1] = assay: Toxicity at PC12 cells (MTT assay); format: cell-based
# Experimental: The results shown are the mean±S.D of three independent experiments in triplicate.
# In this study, the toxicity of APCPP-γ-S, at 1-1000 μM, at PC12 cells was tested by MTT assay. […] At 1000 μM, 75% of the cells were still viable.
# [2] = target: T1, NPP1 from matrix vesicles (MVs) (Homo sapiens, UniProt P22413); assay: NTMP hydrolysis in matrix vesicles; format: biochemical; details: 0.1 mM, NTMP 0.1 mM, OD 405 nm
# T1 construct: Its hydrolysis by endogenous enzyme (NPP1) from matrix vesicles (MVs); from tissue; host or cells: matrix vesicles (MVs)
# T1 sequence (P22413 whole entry): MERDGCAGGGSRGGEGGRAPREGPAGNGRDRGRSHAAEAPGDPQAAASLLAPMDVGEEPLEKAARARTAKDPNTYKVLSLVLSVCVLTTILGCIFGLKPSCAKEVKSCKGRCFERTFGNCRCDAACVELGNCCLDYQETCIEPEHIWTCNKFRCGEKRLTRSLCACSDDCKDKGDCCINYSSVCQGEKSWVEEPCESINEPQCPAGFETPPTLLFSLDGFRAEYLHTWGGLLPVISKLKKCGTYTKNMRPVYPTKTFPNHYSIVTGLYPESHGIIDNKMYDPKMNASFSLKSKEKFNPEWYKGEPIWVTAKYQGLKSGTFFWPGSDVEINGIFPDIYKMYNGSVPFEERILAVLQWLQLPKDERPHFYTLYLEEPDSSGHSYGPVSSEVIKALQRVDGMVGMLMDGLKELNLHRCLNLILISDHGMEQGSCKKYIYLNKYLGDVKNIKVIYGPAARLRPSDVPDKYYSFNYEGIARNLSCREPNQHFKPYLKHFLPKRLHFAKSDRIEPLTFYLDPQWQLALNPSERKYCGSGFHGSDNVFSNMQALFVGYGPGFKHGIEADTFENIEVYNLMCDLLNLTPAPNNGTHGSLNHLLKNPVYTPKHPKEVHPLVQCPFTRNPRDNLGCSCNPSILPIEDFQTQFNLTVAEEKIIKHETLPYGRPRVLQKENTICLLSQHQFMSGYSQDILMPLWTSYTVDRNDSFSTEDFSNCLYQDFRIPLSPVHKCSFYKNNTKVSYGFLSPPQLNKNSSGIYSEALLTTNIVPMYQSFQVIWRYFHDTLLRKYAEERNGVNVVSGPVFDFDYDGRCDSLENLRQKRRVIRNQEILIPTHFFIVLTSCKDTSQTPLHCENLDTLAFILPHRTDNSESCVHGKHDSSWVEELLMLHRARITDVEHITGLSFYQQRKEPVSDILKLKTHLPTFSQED
# Experimental: Increased chondrocyte PPi production, and PPi-generating NPP1 activity are linked with CPPD crystal deposition disease, common in aging and osteoarthritic cartilage. […] Its hydrolysis by endogenous enzyme (NPP1) from matrix vesicles (MVs), human chondrocytes or cartilage pieces results in elevated OD at 405 nm.
# In order to test the ability of the NPP1 inhibitor APPCCl2P-α-S (isomer A) to inhibit NTMP hydrolysis in MVs, MVs at 2.6 mg/ml (final concentration) were incubated with 0.1 mM NTMP in 2-[(2-Hydroxy-1,1-bis(hydroxymethyl)ethyl)amino]ethanesulfonic acid (TES; Sigma catalog number T1375), pH 7.37, in the presence or absence of 0.1 mM of said NPP1 inhibitor for 0, 15′, 30′, 1, 2, 4, 8 hours at 37° C. At each time point the reaction was read at 405 nm.
# chondrocytes = assay: Pyrophosphate formed by ATP hydrolysis in the presence of chondrocytes (fluorogenic sensor); format: cell-based, human; details: 8 h, ATP alone 0.46 μM, without chondrocytes 0.26 μM
# human NPP3 = target: T2, human NPP3 (Homo sapiens, UniProt O14638); assay: Hydrolysis by human NPP3; format: in vitro ADME; details: 100 μM, 1 h, compared to ATP
# T2 construct: made in house; host or cells: COS-7 cells (transfected; protein extract / cell lysate)
# T2 sequence (O14638 1-875): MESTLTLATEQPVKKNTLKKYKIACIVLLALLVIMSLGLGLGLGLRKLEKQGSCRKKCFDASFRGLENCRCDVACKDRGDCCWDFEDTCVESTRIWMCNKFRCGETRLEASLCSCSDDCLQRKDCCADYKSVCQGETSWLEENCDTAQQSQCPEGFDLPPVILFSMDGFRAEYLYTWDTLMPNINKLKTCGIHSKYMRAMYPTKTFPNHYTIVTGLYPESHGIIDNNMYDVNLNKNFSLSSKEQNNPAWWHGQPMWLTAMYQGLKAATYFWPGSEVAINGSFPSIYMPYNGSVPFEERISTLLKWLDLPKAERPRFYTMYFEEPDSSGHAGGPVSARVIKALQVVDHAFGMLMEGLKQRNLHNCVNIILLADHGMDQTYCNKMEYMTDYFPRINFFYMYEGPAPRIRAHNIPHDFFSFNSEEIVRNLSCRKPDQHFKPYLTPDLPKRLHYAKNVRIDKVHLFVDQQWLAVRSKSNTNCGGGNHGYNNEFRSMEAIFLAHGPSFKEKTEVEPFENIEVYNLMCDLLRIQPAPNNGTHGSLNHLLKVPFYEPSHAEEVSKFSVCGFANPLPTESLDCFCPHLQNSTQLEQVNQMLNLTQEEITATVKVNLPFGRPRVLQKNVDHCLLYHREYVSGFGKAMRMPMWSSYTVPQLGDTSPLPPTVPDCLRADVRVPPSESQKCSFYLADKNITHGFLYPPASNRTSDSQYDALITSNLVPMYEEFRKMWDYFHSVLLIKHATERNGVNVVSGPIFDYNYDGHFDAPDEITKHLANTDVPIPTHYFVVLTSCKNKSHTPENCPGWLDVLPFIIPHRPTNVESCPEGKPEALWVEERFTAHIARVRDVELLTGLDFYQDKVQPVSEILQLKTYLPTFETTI
# PC12 cells [3] = assay: Inhibition of Fe(II)-induced ROS formation in PC12 cells (DCFH-DA); format: cell-based; details: read-out: IC50 inhibition of ROS formation
# Experimental: In this study, nucleoside 5′-phosphorothioate analogues were explored as inhibitors of Fe(II)-induced oxidative stress in PC12 cells used as a neuronal model. Reduction of ROS production in PC12 cells by each one of the tested analogues was measured by DCFH-DA, a radical sensitive indicator. After DCFH-DA was removed, the tested analogue was added to the cells at a final concentration of 0.2-200 μM. Oxidation was initiated by the addition of FeSO4 (0.16 μM) to the wells. The plates were incubated for 1 h at 37° C., during which the absorbance was read by a Tecan fluorometer at 485/530 nm.
# Aβ40-Cu^2+ aggregates = target: T3, Aβ40-Cu^2+ aggregates (Homo sapiens, UniProt P05067); assay: TEM, size reduction of Aβ40-Cu^2+ aggregates; details: 6 eq, 7 h; aggregates 2.5 μm before
# T3 construct: purchased GL-Biochem (Shanghai)
# T3 sequence (P05067 672-711): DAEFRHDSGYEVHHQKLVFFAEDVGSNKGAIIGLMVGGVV
# Experimental: (§1) TEM sample was prepared from 200 μM Aβ-M^2+ 1:1 solution (pH 7.4 or 6.6 for Aβ40-Zn^2+ or Aβ40-Cu^2+, respectively) incubated in a rotary shaker for 9 days at RT. A cloudy mixture with massive sediments was obtained. TEM samples were prepared by diluting the stock solutions with PBS to a concentration of 25 μM with or without APCPP-γ-S. In this way four samples were obtained: (i) 25 μM Aβ40-Cu^2+; (ii) 25 μM Aβ40-Cu^2+ containing 150 μM APCPP-γ-S; (iii) 25 μM Aβ40-Zn^2+; and (iv) 25 μM Aβ40-Zn^2+ containing 150 μm APCPP-γ-S. The mixtures were incubated in a rotary shaker for 7 h and after vortexing, a sample was transferred to a gold grid, for Aβ40-Cu^2+, or a copper grid for Aβ40-Zn^2+. The wet grid was left to dry at RT overnight.
# (§2) To validate the DLS data indicating the efficiency of APCPP-γ-S, we monitored the dissolution of Aβ40-M^2+ aggregates in the presence of APCPP-γ-S by TEM. Aβ40-Cu^2+ and Aβ40-Zn^2+ 1:1 complexes were incubated for 9 days at RT, resulting in a significant sediment. Aβ40-Cu^2+ aggregates of 2.5 μm in diameter (FIG. 6A) and Aβ40-Zn^2+ aggregates of different sizes from 100 nm to 2.5 μm (FIG. 6C) were observed by TEM measurements. APCPP-γ-S (6 eq) was then added and the mixture was incubated for 7 h.
# Aβ40-Zn^2+ aggregates = target: T4, Aβ40-Zn^2+ aggregates (Homo sapiens, UniProt P05067); assay: TEM, size reduction of Aβ40-Zn^2+ aggregates; details: 6 eq, 7 h; aggregates 100 nm to 2.5 μm before
# T4 construct: purchased GL-Biochem (Shanghai)
# T4 sequence (P05067 672-711 limits assumed): as the sequence (P05067 672-711) above
# Experimental: as §1, §2
smiles,measurement,setting,value
"Nc1ncnc2c1ncn2[C@@H]1O[C@H](COP(O)(=S)OP(=O)(O)C(Cl)(Cl)P(=O)(O)O)[C@@H](O)[C@H]1O (single isomer, unassigned) [APPCCl2P-α-S, adenosine 5′-[Pα-thio]-β,γ-(dichloromethylene)triphosphate]",viable cells,PC12 cells [1]; 100 μM,100%
same,viable cells,PC12 cells [1]; 1000 μM,75%
"Nc1ncnc2c1ncn2[C@@H]1O[C@H](COP(O)(=S)OP(=O)(O)C(Cl)(Cl)P(=O)(O)O)[C@@H](O)[C@H]1O (single isomer, unassigned; isomer a) [APPCCl2P-α-S (isomer A), adenosine 5′-[Pα-thio]-β,γ-(dichloromethylene)triphosphate]",inhibition of NTMP hydrolysis in MVs,[2],inhibit the hydrolysis of NTMP
same,PPi formed on co-application with ATP,chondrocytes,0.029 µM
"Nc1ncnc2c1ncn2[C@@H]1O[C@H](COP(O)(=S)OP(=O)(O)CP(=O)(O)O)[C@@H](O)[C@H]1O (single isomer, unassigned; isomer a) [APPCP-α-S (isomer A), adenosine 5′-[Pα-thio]-β,γ-methylenetriphosphate]",Hydrolysis by NPP3,human NPP3,~1%
"Nc1ncnc2c1ncn2[C@@H]1O[C@H](COP(O)(=S)OP(=O)(O)CP(=O)(O)O)[C@@H](O)[C@H]1O (single isomer, unassigned; isomer b) [APPCP-α-S (isomer B), adenosine 5′-[Pα-thio]-β,γ-methylenetriphosphate]",Hydrolysis by NPP3,human NPP3,~4%
"Nc1ncnc2c1ncn2[C@@H]1O[C@H](COP(=O)(O)OP(O)(O)=S)[C@@H](O)[C@H]1O [ADP-β-S, adenosine 5′-[β-thio]diphosphate, reference compound]",IC50,"PC12 cells [3]; PC12 cells, FeSO4 0.16 μM, 1 h, DCFH-DA",26 µM
"Nc1ncnc2c1ncn2[C@@H]1O[C@H](COP(=O)(O)CP(=O)(O)OP(O)(O)=S)[C@@H](O)[C@H]1O [APCPP-γ-S, adenosine 5′-[Pγ-thio]-α,β-methylenetriphosphate]",IC50,"PC12 cells [3]; Rattus norvegicus, PC-12, 1 h",0.16 µM
same,reduction of cell viability,PC12 cells [1]; 1000 μM,25%
same,viable cells,PC12 cells [1]; 1000 μM,75%
same,not toxic up to (concentration),PC12 cells [1]; 24 h,up to 100 μM
same,aggregate size after addition,Aβ40-Cu^2+ aggregates,less than 250 nm
same,aggregate size after addition,Aβ40-Zn^2+ aggregates,less than 500 nm
